Patent US12559454B2, “Benzenesulfonamide derivatives and uses thereof” (2692372 Ontario, Inc., priority 2019, dated 2026)
Where “and” joins values, the source holds several entries; their conditions need not be identical. Equal values may be shown once. Read-outs that look alike come from different tables or passages of the source.

Assays:
[1] = Parallel artificial membrane permeability assay (PAMPA), Example D4; conditions: for recovery at 16 h, 10 μM: pH 7.4
Experimental: (§2) 1) The stock solutions of positive controls were prepared in DMSO at the concentration of 10 mM. Testosterone and methotrexate were used as control compounds in this assay. 2) Prepare a stock solution of compounds in DMSO at the concentration of 10 mM, and further dilute with PBS (pH 7.4). The final concentration of the test compound is 10 μM.
(§3) Assay Procedures. […] 2)Carefully pipette 5 μL of the lecithin/dodecane mixture into each acceptor plate well (top compartment), avoiding pipette tip contact with the membrane. 3) Immediately after the application of the artificial membrane (within 10 minutes), add 300 μL of PBS (pH 7.4) solution to each well of the acceptor plate. Add 300 μL of drug-containing solutions to each well of the donor plate (bottom compartment) in triplicate. 4) Slowly and carefully place the acceptor plate into the donor plate, making sure the underside of the membrane is in contact with the drug-containing solutions in all wells. 5) Replace the plate lid and incubate at 25° C., 60 rpm for 16 hours. 6) After incubation, aliquots of 50 μL from each well of acceptor and donor plate are transferred into a 96-well plate. Add 200 μL of methanol (containing IS: 100 nM Alprazolam, 200 nM Labetalol and 2 μM Ketoprofen) into each well. 7) Cover with plate lid. Vortex at 750 rpm for 100 seconds. Samples were centrifuged at 3,220 g for 20 minutes. Determine the compound concentrations by LC/MS/MS.

[2] = PAMPA, 16 h, 10 μM, pH 7.4
Experimental: as §2, §3

[3] = tested on: tubulin; test: Tubulin polymerization assay; type: biochemical; conditions: for % Inhibition: Vmax normalized to tubulin only control; for % D.O.P.: degree of polymerization relative to tubulin control
Summary of the method: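 Purified tubulin (3 mg/mL in the polymerization mix) in 80 mM PIPES pH 6.9, 2 mM MgCl2, 0.5 mM EGTA, 1 mM GTP, 10.2% glycerol was added to inhibitor at 37 °C. A340 read every 15 s for 30 min; maximal baseline-subtracted change relative to tubulin-only control gave % degree of polymerization.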

[4] = Intrinsic clearance in mouse hepatocyte; type: in vitro ADME; conditions: hepatocytes
Experimental: A stock of 100 μM test compound was prepared by diluting the 10 mM test compound in DMSO with a solution of 50% acetonitrile and 50% water. In a 96-well non-coated plate, 198 μL of hepatocytes was pipetted, and the plate was placed in the incubator on an orbital shaker to allow the hepatocytes to warm for 10 minutes. To this solution was added 2 μL of the 100 μM test compound to start the reaction, and the plate was placed on an orbital shaker. […] The reaction solution was then vortexed for 10 minutes and centrifuged at 4,000 rpm for 30 minutes at 4° C. 400 μL of the supernatant was transferred to one new 96-well plate. Centrifuged at 4,000 rpm for 30 minutes at 4° C. Transfer 100 μL of the supernatant to a new 96-well plate ensuring the pellet was not disturbed. Add 100 μL of ultrapure water to all samples for analysis by LC-MS/MS. Bioanalytical method: Column—Phenomenex Synergi 4μ Hydro-PR 80A (2.0×30 mm). Mobile phase—0.1% formic acid in water (solvent A) and 0.1% formic acid in acetonitrile (solvent B). Column temperature—room temperature. Injection volume—10 μL. MS analysis—API 4000 instrument from AB Inc (Canada) with an ESI interface.

[5] = target: T1, BTK (Homo sapiens, UniProt Q06187); test: In vitro BTK inhibition (no preincubation); type: biochemical; conditions: Table 17
T1 sequence (Q06187 whole entry, species assumed): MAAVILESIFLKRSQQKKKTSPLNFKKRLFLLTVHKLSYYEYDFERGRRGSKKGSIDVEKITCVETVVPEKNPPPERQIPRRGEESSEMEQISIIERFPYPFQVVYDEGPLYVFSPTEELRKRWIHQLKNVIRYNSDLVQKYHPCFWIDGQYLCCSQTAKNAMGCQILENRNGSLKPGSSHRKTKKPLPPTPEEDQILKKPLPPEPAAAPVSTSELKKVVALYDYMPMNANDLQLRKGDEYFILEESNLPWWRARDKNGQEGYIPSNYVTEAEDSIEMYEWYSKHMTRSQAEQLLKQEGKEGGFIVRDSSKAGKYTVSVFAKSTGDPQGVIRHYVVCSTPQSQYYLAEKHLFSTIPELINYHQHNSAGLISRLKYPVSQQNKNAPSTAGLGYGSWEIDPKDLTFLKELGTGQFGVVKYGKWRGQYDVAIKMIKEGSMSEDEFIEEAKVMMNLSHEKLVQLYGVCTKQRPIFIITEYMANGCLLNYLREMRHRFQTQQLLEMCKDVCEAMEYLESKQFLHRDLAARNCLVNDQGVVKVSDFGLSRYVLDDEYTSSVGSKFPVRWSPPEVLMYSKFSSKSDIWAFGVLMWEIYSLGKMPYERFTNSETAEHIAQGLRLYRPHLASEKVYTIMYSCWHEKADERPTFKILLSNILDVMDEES

[6] = target: T2, BMX (Homo sapiens, UniProt P51813); test: In vitro kinase inhibition, BMX; type: biochemical
T2 sequence (P51813 1-675): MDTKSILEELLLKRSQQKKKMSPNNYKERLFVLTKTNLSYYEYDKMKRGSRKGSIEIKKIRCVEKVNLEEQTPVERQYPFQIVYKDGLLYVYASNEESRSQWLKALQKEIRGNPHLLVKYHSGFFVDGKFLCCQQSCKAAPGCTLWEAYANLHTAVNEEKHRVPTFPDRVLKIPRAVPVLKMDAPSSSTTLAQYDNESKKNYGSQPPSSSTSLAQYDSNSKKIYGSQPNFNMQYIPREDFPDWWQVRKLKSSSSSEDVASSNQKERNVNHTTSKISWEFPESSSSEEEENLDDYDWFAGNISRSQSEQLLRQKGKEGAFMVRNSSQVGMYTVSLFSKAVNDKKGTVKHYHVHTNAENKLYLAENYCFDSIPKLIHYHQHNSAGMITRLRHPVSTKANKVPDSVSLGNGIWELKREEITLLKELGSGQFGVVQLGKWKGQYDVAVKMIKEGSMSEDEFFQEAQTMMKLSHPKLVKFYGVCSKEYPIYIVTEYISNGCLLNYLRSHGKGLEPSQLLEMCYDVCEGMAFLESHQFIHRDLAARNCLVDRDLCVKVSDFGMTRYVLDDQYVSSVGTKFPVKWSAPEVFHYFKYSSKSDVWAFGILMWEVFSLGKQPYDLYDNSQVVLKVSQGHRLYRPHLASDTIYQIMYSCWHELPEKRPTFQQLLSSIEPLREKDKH

[7] = target: T3, His-tagged BTK kinase domain (Homo sapiens, UniProt Q06187); test: Mass spectral analysis of tryptic digest of BTK kinase domain; type: binding; conditions: 10 μM BTK KD, 10 μM compound, 45 min; tryptic peptide 467-487
T3 construct: Intact His-tagged BTK kinase domain (SOURCE)(10 μM) was incubated
T3 sequence (Q06187 402-655 limits assumed): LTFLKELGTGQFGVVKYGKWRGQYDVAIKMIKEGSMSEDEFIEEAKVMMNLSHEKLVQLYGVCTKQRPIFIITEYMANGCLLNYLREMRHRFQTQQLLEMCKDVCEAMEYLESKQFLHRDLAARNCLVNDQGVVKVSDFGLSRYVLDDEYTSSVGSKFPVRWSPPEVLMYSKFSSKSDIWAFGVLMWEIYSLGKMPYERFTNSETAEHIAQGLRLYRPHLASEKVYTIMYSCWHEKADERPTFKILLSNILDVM
Experimental: A protein kinase that is inhibited by compound and/or pharmaceutically acceptable salt of the present disclosure may be subjected to mass spectral analysis to assess the formation of permanent, irreversible covalent adducts. […] Such methods identify permanent, irreversible covalent protein adducts by observing a mass peak that corresponds to the mass of a control sample plus the mass of an irreversible adduct.
After the incubation time, the reactions were quenched by acetone precipitation and the pellet was re-dissolved in 8 M Urea. […] The BTK protein band was then excised and subjected to an in-gel trypsin digest by reducing the protein (5 mM DTT), alkylating the thiols with iodoacetamide (15 mM), and then incubating the protein gel band with trypsin in a 37 C water bath (4 hours). The tryptic digestion was then quenched by the addition of trifluoroacetic acid, and peptides were removed from the gel band by sonicating with increasing amounts of acetonitrile (0%, 30%, & 60%). Peptides were then purified using C18 ziptips, spotted on the MALDI target plate with α-cyano-4-hydroxycinnamic acid as the desorption matrix (10 mg/mL in 0.10% TFA:Acetonitrile 50:50), and analyzed in reflectron mode.

[8] = target: T4, NanoLuc-BTK fusion protein (Homo sapiens, UniProt Q06187); test: NanoBRET target engagement assay in HEK 293 cells; type: cell-based; conditions: tracer K-5, 2 hours
T4 construct: host or cells: HEK 293 cells
T4 sequence (Q06187 whole entry, the tested form may be a part): as the sequence (Q06187 whole entry, species assumed) above
Excerpt: Bioluminescence Resonance Energy Transfer (BRET) is used to quantitatively measure the interaction between proteins in live cells. The NanoBRET Target Engagement (TE) Assay ((Promega, Cat #N2500)) measures the apparent binding affinity of test compounds at select kinase proteins by competitive displacement of a fluorescent NanoBRET kinase-ligand tracer (K-5), from a target kinase fused to a NanoLuc luciferase protein within intact cells. To determine whether test compounds can bind BTK, a fixed concentration of NanoBRET tracer is added to cells expressing the NanoLuc-BTK fusion protein, thereby generating a BRET reporter complex. Application of competitive test compounds results in a dose-dependent decrease in NanoBRET™ energy transfer, which allows quantitation of apparent intracellular affinity of the BTK target protein for the test compound.
In order to evaluate the binding between BTK and test compounds, an intracellular drug displacement assay was performed. […] The plates were then analyzed with a Biotek Synergy Neo2 plate reader equipped with NanoBRET 618 filters (donor 450 nm/8 nm BP and acceptor 600 nm LP). […] BRET ratios are expressed as milliBRET units (mBU), where 1 mBU corresponds to the corrected BRET ratio multiplied by 1000.

[9] = target: T1, BTK; test: BTK irreversible inhibition, enzyme kinetic analysis; type: biochemical; conditions: 500 μM ATP
Experimental: One of ordinary skill in the art will recognize that this is consistent with the irreversible inhibition of BTK by compound I-A1.
One of ordinary skill in the art will recognize that this is consistent with the irreversible inhibition of BTK by compound I-A6.
One of ordinary skill in the art will recognize that this is consistent with the irreversible inhibition of BTK by compound 3A-2.
The shift of IC50 to a lower value after pre-incubation of the enzyme indicates to one of ordinary skill in the art that a significant portion of the enzyme was inhibited irreversibly during the incubation period.

[10] = target: T1, BTK; test: BTK washout experiment; type: biochemical; conditions: 6-h incubation, 50 nM BTK, 280 nM compound, 400-fold dilution
Experimental: After a 3-h incubation of 40 nM BTK in the presence of 296 nM of compound I-A1, a 400-fold dilution was performed to remove excess inhibitor.
After a 6-h incubation of 50 nM BTK in the presence of 280 nM of compound 3A-6, a 400-fold dilution was performed to remove excess inhibitor.
By way of contrast, a “washout” experiment performed with ARQ-531 gives a very different result, because this compound lacks a warhead and is known to inhibit BTK reversibly. After a 6-h incubation of 50 nM BTK in the presence of 177 nM of ARQ-531, a 400-fold dilution was performed to remove excess inhibitor. […] This indicates to one of ordinary skill in the art that the enzyme was not inhibited irreversibly during the incubation with ARQ-531.

[11] = tested on: MOLM-13 cells; test: CellTiter-Blue cell viability, MOLM-13; type: cell-based; conditions: Homo sapiens, 72 hrs exposure
Summary of the method: (§1)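 Cells plated at 1×10^4 per well, compound (0.097656-50 μM) added after 24 hrs and exposed 72 hrs at 37° C, 5% CO2. Viability by CellTiter-Blue, 1-4 h incubation, fluorescence at 560/590 nm.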

[12] = tested on: MV4-11 cells; test: CellTiter-Blue cell viability, MV-4-11; type: cell-based; conditions: Homo sapiens, 72 hrs exposure
Summary of the method: as §1

[13] = tested on: K562 cells; test: CellTiter-Blue cell viability, K562; type: cell-based; conditions: Homo sapiens, 72 hrs exposure
Summary of the method: as §1

[14] = Reactivity profiling with glutathione, HPLC method; type: physicochemical; conditions: IMDM buffer with 10% FBS and 5 mM GSH, 25 μM compound
Experimental: The rate of compound degradation is determined by the integrated area of the analytical peak corresponding to the intact compound (t=0) after each sampling time. The elution time was 13 minutes with the flow rate of 1.2 ml/min. The mobile phase was consisted of phase A and B. Mobile phase A was analytical grade acetonitrile (+0.1% formic acid) and mobile phase B was Milli-Q water (+0.1% formic acid). Each compound was tested in duplicate. The data was processed and analyzed using GraphPad.

[15] = Plasma concentration in Balb/C nude mice
Experimental: IP administration at 40 mg/kg
Bioanalytical assay: Mobile phase: Solvent A=Water (0.1% Formic acid, 5% Acetonitrile), Solvent B=Acetonitrile (0.1% Formic acid, 5% Water), Column: Agilent ZORBAX XDB-Phenyl 5 μm (50×2.10 mm), MS: AB API 5500 LC/MS/MS instrument, HPLC: Shimadzu (DGU-20A5R)
Mouse species: Balb/C nude mice

SMILES: COc1ccc(NS(=O)(=O)c2c(F)c(F)c(F)c(F)c2F)cc1F [Batabulin, batabulin, reference compound]
- recovery at 16 h, 10 μM [1]: 67.4%
- −Log Pe [2]: 5.00
- % Inhibition [3]: C (>20%)
- % D.O.P. [3]: B (< 85%)
- half-life at 1 μM [4]: ≤ 0.167 h

SMILES: COc1c(F)c(F)c(F)c(F)c1S(=O)(=O)N1CCC[C@@H](n2nc(-c3ccc(Oc4ccccc4)cc3)c3c(N)ncnc32)C1 [Compound 3A-1, (R)-3-(4-phenoxyphenyl)-1-(1-((2,3,4,5-tetrafluoro-6-methoxyphenyl)sulfonyl)piperidin-3-yl)-1H-pyrazolo[3,4-d]pyrimidin-4-amine]
- IC50 [5]: 100 to 1000 nM
- IC50 [6]: 10 to 100 nM

SMILES: COc1c(F)c(F)c(F)c(F)c1S(=O)(=O)NCCn1nc(-c2ccc(Oc3ccccc3)cc2)c2c(N)ncnc21 [Compound 3A-6, N-(2-(4-amino-3-(4-phenoxyphenyl)-1H-pyrazolo[3,4-d]pyrimidin-1-yl)ethyl)-2,3,4,5-tetrafluoro-6-methoxybenzenesulfonamide]
- C481 covalent modification [7]: covalent modification and ✓
- IC50 [8]: 94 nM
- IC50 ([9]; no pre-incubation, read-out: IC50 against BTK not pre-incubated): 109 nM
- IC50 ([9]; after 3-h incubation of 50 nM BTK with 280 nM compound, read-out: IC50 against pre-incubated BTK): 13.9 nM
- IC50 [5]: 100 to 1000 nM
- inhibition at 0.28 µM ([10]; read-out: enzyme inhibited irreversibly): 87%
- remaining activity at 0.28 µM ([10]; relative to DMSO, read-out: residual activity of the enzyme): 13%

SMILES: COc1ccc(NS(=O)(=O)c2c(F)c(F)c(F)c(F)c2OC2CC2)cc1F [Compound I-75, 2-cyclopropoxy-3,4,5,6-tetrafluoro-N-(3-fluoro-4-methoxyphenyl)benzenesulfonamide]
- IC50 [11]: 100 to 1000 nM
- −Log Pe ([1]; PBS pH 7.4, 10 μM, 16 hours): 5.02
- recovery at 16 h, 10 μM [1]: 94.9%
- IC50 [12]: ≤ 100 nM
- % Inhibition [3]: B (10-20%)
- % D.O.P. [3]: B (< 85%)
- IC50 [13]: 100 to 1000 nM
- half-life at 1 μM [4]: 1.67 to 16.7 h
- half-life at 25 μM [14]: 1.67 to 16.7 h
- Cmax ([15]; Balb/C nude, mouse, ip, 40 mg/kg): < 20 ng/mL and < 50 µM
- K (h^−1) ([15]; IP 40 mg/kg, Balb/C nude mice): A (≤5 h^−1)
